From the supplement of paper PMC11208160

Experiment: recombinant barcode read abundance after kanamycin selection (control-corrected) (log10(CPM+1)); higher = more efficient recombination; sequences stand for … in AGTGCAGAGAAAATCGGCCAGTTTTCTCTGCCTGCAGTCCGCATGCCGT…ATTTATGCAGCGGACTGCCTTTCTCCCAAAGTGATAAACCGGACAGTATCATGGACCGGTTTTCCCGGTAATCCGTATTTGCAAGGTTGGTTTCACT; site = the 11-nt target
Description: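 Same pooled E. coli target screen (IS621 bridge recombinase, kanamycin selection, control-corrected CPM, mean of 2 biological replicates). Here the two core-binding nucleotides of the LTG and RTG of the bridge RNA target-binding loop are mutated. Target and donor CT cores are held constant, and the other 9 guide positions match the target. The target is read from the library oligo sequence. Molecule = full bridge RNA written as DNA: nt 1-80 from the library oligo, rest WT scaffold.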

| Sequence | recombinant barcode read abundance (log10) |
| --- | --- |
| ACGGGACGCTGGGTTCTAACCTGTTGCAGGC [ACGGGACCTCT_LTGcore_GC_RTGcore_GC] (site ACGGGACCTCT) (LTG core: GC, RTG core: GC) | 0.151 |
| ACGGGACGTTGGGTTCTAACCTGTTGCAGAC [ACGGGACCTCT_LTGcore_GT_RTGcore_GT] (site ACGGGACCTCT) (LTG core: GT, RTG core: GT) | 0.0225 |
| ACGGGACTCTGGGTTCTAACCTGTTGCAGAG [ACGGGACCTCT_LTGcore_TC_RTGcore_CT] (site ACGGGACCTCT) (LTG core: TC, RTG core: CT) | 0.0751 |
| AGGAGGTCTTGGGTTCTAACCTGTTGCCTTT [AGGAGGTCTAG_LTGcore_CT_RTGcore_AA] (site AGGAGGTCTAG) (LTG core: CT, RTG core: AA) | 1.32 |
| AGGAGGTGGTGGGTTCTAACCTGTTGCCTAG [AGGAGGTCTAG_LTGcore_GG_RTGcore_CT] (site AGGAGGTCTAG) (LTG core: GG, RTG core: CT) | 0.165 |
| AGGAGGTGTTGGGTTCTAACCTGTTGCCTAG [AGGAGGTCTAG_LTGcore_GT_RTGcore_CT] (site AGGAGGTCTAG) (LTG core: GT, RTG core: CT) | 0 |
| AGGCCTCAATGGGTTCTAACCTGTTGCCTAG [AGGCCTCCTAG_LTGcore_AA_RTGcore_CT] (site AGGCCTCCTAG) (LTG core: AA, RTG core: CT) | 0.0132 |
| AGGCCTCCATGGGTTCTAACCTGTTGCCTTG [AGGCCTCCTAG_LTGcore_CA_RTGcore_CA] (site AGGCCTCCTAG) (LTG core: CA, RTG core: CA) | 0.128 |
| AGGCCTCCTTGGGTTCTAACCTGTTGCCTAT [AGGCCTCCTAG_LTGcore_CT_RTGcore_AT] (site AGGCCTCCTAG) (LTG core: CT, RTG core: AT) | 0.576 |
| AGGCCTCCTTGGGTTCTAACCTGTTGCCTCT [AGGCCTCCTAG_LTGcore_CT_RTGcore_AG] (site AGGCCTCCTAG) (LTG core: CT, RTG core: AG) | 0.369 |
| AGGCCTCCTTGGGTTCTAACCTGTTGCCTTC [AGGCCTCCTAG_LTGcore_CT_RTGcore_GA] (site AGGCCTCCTAG) (LTG core: CT, RTG core: GA) | 0.109 |
| AGGCCTCGCTGGGTTCTAACCTGTTGCCTGC [AGGCCTCCTAG_LTGcore_GC_RTGcore_GC] (site AGGCCTCCTAG) (LTG core: GC, RTG core: GC) | 0.137 |
| AGGCCTCTATGGGTTCTAACCTGTTGCCTAG [AGGCCTCCTAG_LTGcore_TA_RTGcore_CT] (site AGGCCTCCTAG) (LTG core: TA, RTG core: CT) | 0.0484 |
| AGGCCTCTCTGGGTTCTAACCTGTTGCCTAG [AGGCCTCCTAG_LTGcore_TC_RTGcore_CT] (site AGGCCTCCTAG) (LTG core: TC, RTG core: CT) | 0.137 |
| AGGCGGGACTGGGTTCTAACCTGTTGCGGAG [AGGCGGGCTCC_LTGcore_AC_RTGcore_CT] (site AGGCGGGCTCC) (LTG core: AC, RTG core: CT) | 0.555 |
| AGGCGGGACTGGGTTCTAACCTGTTGCGGGT [AGGCGGGCTCC_LTGcore_AC_RTGcore_AC] (site AGGCGGGCTCC) (LTG core: AC, RTG core: AC) | 0.011 |
| AGGCGGGCCTGGGTTCTAACCTGTTGCGGGG [AGGCGGGCTCC_LTGcore_CC_RTGcore_CC] (site AGGCGGGCTCC) (LTG core: CC, RTG core: CC) | 0.126 |

| Sequence | recombinant barcode read abundance (log10) |
| --- | --- |
| AGGCGGGCTTGGGTTCTAACCTGTTGCGGAC [AGGCGGGCTCC_LTGcore_CT_RTGcore_GT] (site AGGCGGGCTCC) (LTG core: CT, RTG core: GT) | 0.13 |
| AGGCGGGCTTGGGTTCTAACCTGTTGCGGAT [AGGCGGGCTCC_LTGcore_CT_RTGcore_AT] (site AGGCGGGCTCC) (LTG core: CT, RTG core: AT) | 0.513 |
| AGGCGGGCTTGGGTTCTAACCTGTTGCGGCG [AGGCGGGCTCC_LTGcore_CT_RTGcore_CG] (site AGGCGGGCTCC) (LTG core: CT, RTG core: CG) | 0.146 |
| AGGCGGGCTTGGGTTCTAACCTGTTGCGGGA [AGGCGGGCTCC_LTGcore_CT_RTGcore_TC] (site AGGCGGGCTCC) (LTG core: CT, RTG core: TC) | 0.253 |
| AGGCGGGCTTGGGTTCTAACCTGTTGCGGTC [AGGCGGGCTCC_LTGcore_CT_RTGcore_GA] (site AGGCGGGCTCC) (LTG core: CT, RTG core: GA) | 0.246 |
| AGGCGGGGATGGGTTCTAACCTGTTGCGGTC [AGGCGGGCTCC_LTGcore_GA_RTGcore_GA] (site AGGCGGGCTCC) (LTG core: GA, RTG core: GA) | 0.133 |
| AGGCGGGGGTGGGTTCTAACCTGTTGCGGAG [AGGCGGGCTCC_LTGcore_GG_RTGcore_CT] (site AGGCGGGCTCC) (LTG core: GG, RTG core: CT) | 0.101 |
| AGGCGGGGTTGGGTTCTAACCTGTTGCGGAG [AGGCGGGCTCC_LTGcore_GT_RTGcore_CT] (site AGGCGGGCTCC) (LTG core: GT, RTG core: CT) | 0.871 |
| AGGCGGGTATGGGTTCTAACCTGTTGCGGTA [AGGCGGGCTCC_LTGcore_TA_RTGcore_TA] (site AGGCGGGCTCC) (LTG core: TA, RTG core: TA) | 0.364 |
| AGGCGGGTTTGGGTTCTAACCTGTTGCGGAA [AGGCGGGCTCC_LTGcore_TT_RTGcore_TT] (site AGGCGGGCTCC) (LTG core: TT, RTG core: TT) | 0.299 |
| AGGCGGTAATGGGTTCTAACCTGTTGCTTAG [AGGCGGTCTAA_LTGcore_AA_RTGcore_CT] (site AGGCGGTCTAA) (LTG core: AA, RTG core: CT) | 0.371 |
| AGGCGGTAATGGGTTCTAACCTGTTGCTTTT [AGGCGGTCTAA_LTGcore_AA_RTGcore_AA] (site AGGCGGTCTAA) (LTG core: AA, RTG core: AA) | 0.0996 |
| AGGCGGTCTTGGGTTCTAACCTGTTGCTTCC [AGGCGGTCTAA_LTGcore_CT_RTGcore_GG] (site AGGCGGTCTAA) (LTG core: CT, RTG core: GG) | 0.0963 |
| AGGCGGTCTTGGGTTCTAACCTGTTGCTTGT [AGGCGGTCTAA_LTGcore_CT_RTGcore_AC] (site AGGCGGTCTAA) (LTG core: CT, RTG core: AC) | 0.127 |
| AGGCGGTCTTGGGTTCTAACCTGTTGCTTTT [AGGCGGTCTAA_LTGcore_CT_RTGcore_AA] (site AGGCGGTCTAA) (LTG core: CT, RTG core: AA) | 0.0668 |
| AGGCGGTGCTGGGTTCTAACCTGTTGCTTAG [AGGCGGTCTAA_LTGcore_GC_RTGcore_CT] (site AGGCGGTCTAA) (LTG core: GC, RTG core: CT) | 0.419 |
| AGGCGGTGTTGGGTTCTAACCTGTTGCTTAG [AGGCGGTCTAA_LTGcore_GT_RTGcore_CT] (site AGGCGGTCTAA) (LTG core: GT, RTG core: CT) | 0.203 |
